This passage reports IC50 results from patent US20240423969A1, “SYNERGISTIC DRUG COMBINATIONS TO TREAT CANCER” (Mayo Foundation for Medical Education and Research, priority 2023, published 2024).

The subject of the assay is HCC cell lines (HLE, HLF, and PLC/PRF5). The assay can be described thus: Cell proliferation assay, three HCC cell lines. It counts as cell-based. The settings on record: Homo sapiens, PLC-PRF-5, single agent, range over HLE, 96 hours, read-out: IC50 (concentration that inhibits proliferation of 50% cells). As to the method: HCC cell lines (3×10^5 cells) were suspended in a 10 mL culture medium and seeded onto 96-well black plates at 100 μL per well (Corning Incorporated, Corning, NY, USA). The next day, SSI-4, cabozantinib, and/or lenvatinib were added in concentrations ranging from 120 μM to 0.1 nM and incubated with cells for 96 hours. After incubation times, the media was discarded, and cells were washed with 100 μL PBS, dried, and placed at −80° C. for at least 30 minutes. Next, a CyQUANT® Cell Proliferation Assay (Thermo Fisher, Waltham, MA) was used for quantifying cells and for assessing cell proliferation and cytotoxicity following manufacturer protocol. For 3D cell culture, the cell viability was analyzed using CellTiter-Glo® 3D Cell Viability Assay (Promega, Madison, WI), and relative luminescence units (RLU) were measured. Based, on the fluorescence or luminescence values, the percentage of cell proliferation inhibition and half-maximal inhibitory concentration (IC50) was determined using the GraphPad Prism (Dotmatics, San Diego, CA). The resulting combination index (CI) data based on the median effect principle proposed by Chou and Talalay was generated using CalcuSyn Software Version 2.0 (Biosoft). At least 3 independent experiments were performed.
Three HCC cell lines (HLE, HLF, and PLC/PRF5) were tested and the concentration that inhibits proliferation of 50% cells (IC50) was determined. […]

As to `CNC(=O)c1ccnc(NC(=O)N2CCC(Oc3ccccc3Cl)CC2)c1` [SSI-4, 2-{[4-(2-Chlorophenoxy)piperidine-1-carbonyl]amino}-N-methylpyridine-4-carboxamide], the IC50 fell in the range of 0.001 to 0.019 µM.

For the compound `COc1cc2nccc(Oc3ccc(NC(=O)C4(C(=O)Nc5ccc(F)cc5)CC4)cc3)c2cc1OC` [cabozantinib], the IC50 fell in the range of 19 to 72 µM.

Regarding `COc1cc2nccc(Oc3ccc(NC(=O)NC4CC4)c(Cl)c3)c2cc1C(N)=O` [lenvatinib], the IC50 is 11 to 24 µM.
